Values quoted from earlier work in patent US20170000799A1, “ORAL PHARMACEUTICAL COMPOSITION” (LABORATORIOS DEL DR. ESTEVE, S.A., priority 2013, published 2017).

Conditions: many organic solvents, including ethanol

O=C(NC[C@H]1CN(c2ccc(N3CCOCC3=O)cc2)C(=O)O1)c1ccc(Cl)s1 [Rivaroxaban, 5-Cloro-N-[2-oxo-3-[4-(3-oxomorpholin-4-yl)phenyl]-1,3-oxazolidin-5(S)-ylmethyl]-thiophene-2-carboxamide]
solubility in organic solvents: low solubility
